From patent US5358951A, “Angiotensin II receptor blocking 2, 3, 6 substituted quinazolinones” (American Cyanamid Company, priority 1993, dated 1994)

System: vasopressor response of angiotensin II
Experiment: AII Challenge: antagonism of angiotensin II vasopressor response;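 for Response Average Change: post-dose Angiotensin II-evoked rise in systolic blood pressure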
Assay type: in vivo
Settings: for inhibition in vivo at 3 mg/kg / inhibition in vivo at 5 mg/kg: Rattus norvegicus; for inhibition in vivo at 3 mg/kg: iv; for inhibition in vivo at 5 mg/kg: po
From the text: Conscious Male Okamoto-Aoki SHR, 16-20 weeks old, weighing approximately 330 g are purchased from Charles River Labs (Wilmington, Mass.). Conscious rats are restrained in a supine position with elastic tape. The area at the base of the tail is locally anesthetized by subcutaneous infiltration with 2% procaine. The ventral caudal artery and vein are isolated, and a cannula made of polyethylene (PE) 10-20 tubing (fused together by heat) is passed into the lower abdominal aorta and vena cava, respectively. The cannula is secured, heparinized (1,000 I.U./ml), sealed and the wound is closed. The animals are placed in plastic restraining cages in an upright position. The cannula is attached to a Statham P23 Db pressure transducer, and pulsatile blood pressure is recorded to 10-15 minutes with a Gould Brush recorder. (Chan et al., (Drug Development Res., 18:75-94, 1989). Angiotensin II (human sequence, Sigma Chem. Co., St. Louis, Mo.) of 0.05 and 0.1 ug/kg i.v. is injected into all rats (predosing response). Then a test compound, vehicle or a known angiotensin II antagonist is administered i.v., i.p. or orally to each set of rats. The two doses of angiotensin II are given to each rat again at 30, 60, 90, 120, 180, 240 and 300 minutes post dosing the compound or vehicle. The vasopressor response of angiotensin II is measured for the increase in systolic blood pressure in mmHg. The percentage of antagonism or blockade of the vasopressor response of angiotensin II by a compound is calculated using the vasopressor response (increase in systolic blood pressure) of angiotensin II of each rat predosing the compound as 100%.

[1] = 3 mg/kg I.V., AII 0.05 mcg/kg IV, 30 min post dose
[2] = 3 mg/kg I.V., AII 0.05 mcg/kg IV, 60 min post dose
[3] = 3 mg/kg I.V., AII 0.05 mcg/kg IV, 90 min post dose
[4] = 3 mg/kg I.V., AII 0.05 mcg/kg IV, 120 min post dose
[5] = 3 mg/kg I.V., AII 0.05 mcg/kg IV, 180 min post dose
[6] = 3 mg/kg I.V., AII 0.1 mcg/kg IV, 30 min post dose
[7] = 3 mg/kg I.V., AII 0.1 mcg/kg IV, 60 min post dose
[8] = 3 mg/kg I.V., AII 0.1 mcg/kg IV, 90 min post dose
[9] = 3 mg/kg I.V., AII 0.1 mcg/kg IV, 120 min post dose
[10] = 3 mg/kg I.V., AII 0.1 mcg/kg IV, 180 min post dose
[11] = 5 mg/kg P.O., AII 0.05 mcg/kg IV, 30 min post dose
[12] = 5 mg/kg P.O., AII 0.05 mcg/kg IV, 60 min post dose
[13] = 5 mg/kg P.O., AII 0.05 mcg/kg IV, 90 min post dose
[14] = 5 mg/kg P.O., AII 0.05 mcg/kg IV, 120 min post dose
[15] = 5 mg/kg P.O., AII 0.05 mcg/kg IV, 180 min post dose
[16] = 5 mg/kg P.O., AII 0.05 mcg/kg IV, 240 min post dose
[17] = 5 mg/kg P.O., AII 0.05 mcg/kg IV, 300 min post dose
[18] = 5 mg/kg P.O., AII 0.1 mcg/kg IV, 30 min post dose
[19] = 5 mg/kg P.O., AII 0.1 mcg/kg IV, 60 min post dose
[20] = 5 mg/kg P.O., AII 0.1 mcg/kg IV, 90 min post dose
[21] = 5 mg/kg P.O., AII 0.1 mcg/kg IV, 120 min post dose
[22] = 5 mg/kg P.O., AII 0.1 mcg/kg IV, 180 min post dose
[23] = 5 mg/kg P.O., AII 0.1 mcg/kg IV, 240 min post dose
[24] = 5 mg/kg P.O., AII 0.1 mcg/kg IV, 300 min post dose
[25] = 0.5 h, 3 mg/kg I.V., AII 0.05 mcg/kg IV, 30 min post dose
[26] = 0.5 h, 3 mg/kg I.V., AII 0.1 mcg/kg IV, 30 min post dose
[27] = 1 h, 3 mg/kg I.V., AII 0.05 mcg/kg IV, 60 min post dose
[28] = 1 h, 3 mg/kg I.V., AII 0.1 mcg/kg IV, 60 min post dose
[29] = 2 h, 3 mg/kg I.V., AII 0.05 mcg/kg IV, 120 min post dose
[30] = 2 h, 3 mg/kg I.V., AII 0.1 mcg/kg IV, 120 min post dose
[31] = 3 h, 3 mg/kg I.V., AII 0.05 mcg/kg IV, 180 min post dose
[32] = 3 h, 3 mg/kg I.V., AII 0.1 mcg/kg IV, 180 min post dose
[33] = […], 3 mg/kg I.V., AII 0.05 mcg/kg IV, 90 min post dose
[34] = […], 3 mg/kg I.V., AII 0.1 mcg/kg IV, 90 min post dose
[35] = 0.5 h, 5 mg/kg P.O., AII 0.05 mcg/kg IV, 30 min post dose
[36] = 0.5 h, 5 mg/kg P.O., AII 0.1 mcg/kg IV, 30 min post dose
[37] = 1 h, 5 mg/kg P.O., AII 0.05 mcg/kg IV, 60 min post dose
[38] = 1 h, 5 mg/kg P.O., AII 0.1 mcg/kg IV, 60 min post dose
[39] = 2 h, 5 mg/kg P.O., AII 0.05 mcg/kg IV, 120 min post dose
[40] = 2 h, 5 mg/kg P.O., AII 0.1 mcg/kg IV, 120 min post dose
[41] = 3 h, 5 mg/kg P.O., AII 0.05 mcg/kg IV, 180 min post dose
[42] = 3 h, 5 mg/kg P.O., AII 0.1 mcg/kg IV, 180 min post dose
[43] = 4 h, 5 mg/kg P.O., AII 0.05 mcg/kg IV, 240 min post dose
[44] = 4 h, 5 mg/kg P.O., AII 0.1 mcg/kg IV, 240 min post dose
[45] = 5 h, 5 mg/kg P.O., AII 0.05 mcg/kg IV, 300 min post dose
[46] = 5 h, 5 mg/kg P.O., AII 0.1 mcg/kg IV, 300 min post dose
[47] = […], 5 mg/kg P.O., AII 0.05 mcg/kg IV, 90 min post dose
[48] = […], 5 mg/kg P.O., AII 0.1 mcg/kg IV, 90 min post dose

## CCCCc1nc2ccc([C@@H]3C[C@H]4CCCN4O3)cc2c(=O)n1Cc1ccc(-c2ccccc2-c2nnn[nH]2)cc1 (racemic) [Example 57, Cis-(+/-)-2-Butyl-6-(hexahydropyrrolo[1,2-b]isoxazol-2-yl)-3-[[2'-(1H-tetrazol-5-yl)[1,1'-biphenyl]-4-yl]methyl]-4(3H)-quinazolinone]
[1]
  Response Average Change: 12.5 mmHg
[2]
  Response Average Change: 22.5 mmHg
[3]
  Response Average Change: 20 mmHg
[4]
  Response Average Change: 17.5 mmHg
[5]
  Response Average Change: 36 mmHg
[6]
  Response Average Change: 7.5 mmHg
[7]
  Response Average Change: 15 mmHg
[8]
  Response Average Change: 20 mmHg
[9]
  Response Average Change: 37.5 mmHg
[10]
  Response Average Change: 44 mmHg
[11]
  Response Average Change: 31.5 mmHg
[12]
  Response Average Change: 25 mmHg
[13]
  Response Average Change: 32.5 mmHg
[14]
  Response Average Change: 20 mmHg
[15]
  Response Average Change: 20 mmHg
[16]
  Response Average Change: 20 mmHg
[17]
  Response Average Change: 22.5 mmHg
[18]
  Response Average Change: 22.5 mmHg
[19]
  Response Average Change: 29 mmHg
[20]
  Response Average Change: 29.5 mmHg
[21]
  Response Average Change: 25 mmHg
[22]
  Response Average Change: 41.5 mmHg
[23]
  Response Average Change: 40 mmHg
[24]
  Response Average Change: 42.5 mmHg
[25]
  inhibition in vivo at 3 mg/kg: 67%
[26]
  inhibition in vivo at 3 mg/kg: 81%
[27]
  inhibition in vivo at 3 mg/kg: 40%
[28]
  inhibition in vivo at 3 mg/kg: 63%
[29]
  inhibition in vivo at 3 mg/kg: 57%
[30]
  inhibition in vivo at 3 mg/kg: 17%
[31]
  inhibition in vivo at 3 mg/kg: 11%
[32]
  inhibition in vivo at 3 mg/kg: 2%
[33]
  inhibition in vivo at 3 mg/kg: 47%
[34]
  inhibition in vivo at 3 mg/kg: 50%
[35]
  inhibition in vivo at 5 mg/kg: 26%
[36]
  inhibition in vivo at 5 mg/kg: 47%
[37]
  inhibition in vivo at 5 mg/kg: 41%
[38]
  inhibition in vivo at 5 mg/kg: 32%
[39]
  inhibition in vivo at 5 mg/kg: 53%
[40]
  inhibition in vivo at 5 mg/kg: 41%
[41]
  inhibition in vivo at 5 mg/kg: 53%
[42]
  inhibition in vivo at 5 mg/kg: 2%
[43]
  inhibition in vivo at 5 mg/kg: 53%
[44]
  inhibition in vivo at 5 mg/kg: 6%
[45]
  inhibition in vivo at 5 mg/kg: 47%
[46]
  inhibition in vivo at 5 mg/kg: 0%
[47]
  inhibition in vivo at 5 mg/kg: 24%
[48]
  inhibition in vivo at 5 mg/kg: 31%

## CCCCc1nc2ccc([C@]3(C)C[C@@H]4CCCN4O3)cc2c(=O)n1Cc1ccc(-c2ccccc2-c2nnn[nH]2)cc1 (relative stereo) [Example 59, Trans-2-Butyl-6-(hexahydro-2-methylpyrrolo[1,2-b]isoxazol-2-yl)-3-[[2'-(1H-tetrazol-5-yl)[1,1'-biphenyl]-4-yl]methyl]-4(3H)-quinazolinone]
[1]
  Response Average Change: 17.5 mmHg
[2]
  Response Average Change: 9 mmHg
[3]
  Response Average Change: 18.5 mmHg
[4]
  Response Average Change: 9.5 mmHg
[5]
  Response Average Change: 20 mmHg
3 mg/kg I.V., AII 0.05 mcg/kg IV, 240 min post dose
  Response Average Change: 18.5 mmHg
[6]
  Response Average Change: 21 mmHg
[7]
  Response Average Change: 23.5 mmHg
[8]
  Response Average Change: 17.5 mmHg
[9]
  Response Average Change: 12.5 mmHg
[10]
  Response Average Change: 22.5 mmHg
3 mg/kg I.V., AII 0.1 mcg/kg IV, 240 min post dose
  Response Average Change: 27.5 mmHg
[11]
  Response Average Change: 19 mmHg
[12]
  Response Average Change: 12.5 mmHg
[13]
  Response Average Change: 17.5 mmHg
[14]
  Response Average Change: 24 mmHg
[15]
  Response Average Change: 18.5 mmHg
[16]
  Response Average Change: 12.5 mmHg
[17]
  Response Average Change: 12.5 mmHg
[18]
  Response Average Change: 22.5 mmHg
[19]
  Response Average Change: 12.5 mmHg
[20]
  Response Average Change: 17.5 mmHg
[21]
  Response Average Change: 17.5 mmHg
[22]
  Response Average Change: 14 mmHg
[23]
  Response Average Change: 10 mmHg
[24]
  Response Average Change: 10 mmHg
[25]
  inhibition in vivo at 3 mg/kg: 49%
[26]
  inhibition in vivo at 3 mg/kg: 49%
[27]
  inhibition in vivo at 3 mg/kg: 74%
[28]
  inhibition in vivo at 3 mg/kg: 43%
[29]
  inhibition in vivo at 3 mg/kg: 72%
[30]
  inhibition in vivo at 3 mg/kg: 70%
[31]
  inhibition in vivo at 3 mg/kg: 41%
[32]
  inhibition in vivo at 3 mg/kg: 45%
4 h, 3 mg/kg I.V., AII 0.05 mcg/kg IV, 240 min post dose
  inhibition in vivo at 3 mg/kg: 46%
4 h, 3 mg/kg I.V., AII 0.1 mcg/kg IV, 240 min post dose
  inhibition in vivo at 3 mg/kg: 33%
[33]
  inhibition in vivo at 3 mg/kg: 46%
[34]
  inhibition in vivo at 3 mg/kg: 57%
[35]
  inhibition in vivo at 5 mg/kg: 49%
[36]
  inhibition in vivo at 5 mg/kg: 49%
[37]
  inhibition in vivo at 5 mg/kg: 67%
[38]
  inhibition in vivo at 5 mg/kg: 72%
[39]
  inhibition in vivo at 5 mg/kg: 36%
[40]
  inhibition in vivo at 5 mg/kg: 60%
[41]
  inhibition in vivo at 5 mg/kg: 51%
[42]
  inhibition in vivo at 5 mg/kg: 68%
[43]
  inhibition in vivo at 5 mg/kg: 67%
[44]
  inhibition in vivo at 5 mg/kg: 77%
[45]
  inhibition in vivo at 5 mg/kg: 67%
[46]
  inhibition in vivo at 5 mg/kg: 77%
[47]
  inhibition in vivo at 5 mg/kg: 53%
[48]
  inhibition in vivo at 5 mg/kg: 60%
